US9296728B2, “Therapeutic compounds” (Regents of the University of Minnesota, priority 2012, dated 2016)
Values joined by “and” are separate entries in the source; they are usually repeats but may differ in a detail not shown here. Equal values may be shown once. Read-outs that look alike come from different tables or passages of the source.

Assays:
[1] = molecular target: MCT1 (Rattus norvegicus (Rat), UniProt P53987); assay: Test A. MCT1 inhibition via lactate uptake in rat brain endothelial (RBE4) cells; assay type: cell-based; details: 14C-lactate uptake
Sequence of MCT1 (P53987 whole entry): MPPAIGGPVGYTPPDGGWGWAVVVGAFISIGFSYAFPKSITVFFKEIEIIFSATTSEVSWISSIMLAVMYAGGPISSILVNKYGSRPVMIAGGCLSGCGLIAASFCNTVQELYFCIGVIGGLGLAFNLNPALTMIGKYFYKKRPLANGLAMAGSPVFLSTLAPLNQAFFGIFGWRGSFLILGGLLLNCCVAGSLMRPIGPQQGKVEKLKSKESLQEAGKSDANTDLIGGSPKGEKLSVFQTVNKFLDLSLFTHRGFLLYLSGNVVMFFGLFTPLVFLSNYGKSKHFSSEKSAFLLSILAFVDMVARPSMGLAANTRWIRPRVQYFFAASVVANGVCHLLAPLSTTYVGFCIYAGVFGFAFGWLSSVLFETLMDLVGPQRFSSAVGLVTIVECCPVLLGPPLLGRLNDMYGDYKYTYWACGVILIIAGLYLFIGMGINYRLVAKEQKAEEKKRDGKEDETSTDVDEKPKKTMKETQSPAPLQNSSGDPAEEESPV
Sequence of MCT1 (P26453 141-388 partner): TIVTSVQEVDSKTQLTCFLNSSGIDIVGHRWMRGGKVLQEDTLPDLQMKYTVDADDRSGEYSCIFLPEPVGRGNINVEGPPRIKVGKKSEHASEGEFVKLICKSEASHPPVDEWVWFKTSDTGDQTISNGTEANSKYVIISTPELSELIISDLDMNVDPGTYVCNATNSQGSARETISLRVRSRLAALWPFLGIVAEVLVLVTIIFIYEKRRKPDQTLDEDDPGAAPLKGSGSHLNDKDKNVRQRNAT
Method: Test A. MCT1 Inhibition Via Lactate Uptake Rat Brain Endothelial Cells
The entire lactate uptake studies for the inhibition of MCT1 were carried out on RBE4 (Rat Brain Endothelial 4) cells. The expression of MCT1 on these cells was confirmed by Western Blotting. The cells were plated approximately 20-24 hours before the experiment, the number of cells being approximately 10^5 cells per well. The test compounds were dissolved in DMSO and diluted 1000 times using a solution of HEPES buffer (pH 7.43) which consists of 3 μM ^14C-Lactate and 2 μM L-Lactate. The cells were washed twice with 500 μL of HEPES buffer and the cells were allowed to equilibrate for 15 minutes at 37° C. The HEPES buffer was removed and 250 μL of the test sample was added in triplicates. This was repeated for all the compounds, including the controls (CHC and DMSO). After 15 minutes, the compounds were removed from the well and 500 μL of ice-cold stop buffer (0.1 mM CHC solution in HEPES buffer) was added. The plate was kept on ice. Now, the HEPES buffer in one triplicate was removed and DMSO solution was added and immediately removed and ice-cold stop buffer was added. This was considered as “Zero”. One triplicate was left blank, which was used for protein assay after lysing the cells. The cells were washed twice with ice-cold HEPES buffer and then 250 μL of 0.1M NaOH in 5% Triton-X solution was added and the plate is kept on a shaker for 40 minutes to lyse the cells. 150 μL of the lysed cells was added into 4 mL of the scintillation fluid in a scintillation vial and scintillation count was obtained in disintegrations per minute (dpm). The percent inhibition values were calculated by taking DMSO as minimum. Concentration study (usually 9-12 dilutions) was done to determine the IC50 of each compound.

[2] = Toxicity study in BALB/c nude mice containing WiDr colorectal adenocarcinoma xenograft (body weight); assay type: in vivo; details: BALB/c nude mice with WiDr xenograft
Method: Female BALB/c nude mice weighing ˜20 g were taken and 5.0 10^6 WiDr cancer cells were implanted into their right flanks with a 1:1 mixture of 0.1 mL PBS and matrigel. The tumor was allowed to grow to a size of ˜150 cubic millimeters (14 days). The mice were randomly chosen by chance and assigned into 5 groups (6 mice per group), one group being the control group to which tumor was allowed to grow without any drug administration (food only). The drugs were administered twice daily by P.O. or I.P. Group 1 mice were administered orally with 50 mg/kg of Compound 20. Groups 2, 3 and 4 mice were treated via IP with 10 mg/kg Compound 20, 8 mg/kg of Compound 14 and 238 mg/kg CHC respectively. Body weight changes were recorded every two days for 3 weeks.

[3] = Pharmacokinetic study of Compound 20 in ICR mice; assay type: in vivo; details: for CLz/F / t1/2Z / concentration at 0 h / concentration at 0.083 h / concentration at 0.25 h / concentration at 0.5 h / concentration at 1 h / concentration at 2 h / concentration at 4 h / concentration at 6 h / concentration at 8 h / concentration at 24 h / AUC(0-inf) / AUC(0-t) / Cmax / Tmax / Vd/F: plasma; for CLz/F / t1/2Z / AUC(0-inf) / AUC(0-t) / Cmax / Tmax / Vd/F: mean; for concentration at 0 h / concentration at 0.083 h / concentration at 0.25 h / concentration at 0.5 h / concentration at 1 h / concentration at 2 h / concentration at 4 h / concentration at 6 h / concentration at 8 h / concentration at 24 h / AUC(0-inf) / AUC(0-t) / Cmax / Tmax / Vd/F: male, mouse; for concentration at 0 h / concentration at 0.083 h / concentration at 0.25 h / concentration at 0.5 h / concentration at 1 h / concentration at 2 h / concentration at 4 h / concentration at 6 h / concentration at 8 h / concentration at 24 h: ICR, 100 mg/kg; for concentration at 6 h / concentration at 24 h: n = 3; for Vd/F: read-out: Vz/F
Method: 60 male ICR mice were split into two groups of 30. In each group the mice were prescribed Compound 20 at a dosage of 100 mg/kg. This dose was administered orally in group 1 and intraperitoneally in group 2. Each group of 30 mice was subdivided into groups of 3 mice. Blood samples were taken through orbital sinus method at 0, 0.083, 0.25, 0.5, 1, 2, 4, 6, 8 and 24 hours after administering Compound 20 and taken into tubes with anticoagulant at room temperature at least 30 minutes prior to centrifugation, then centrifuged at 10000 rpm for 5 minutes at 4° C. to separate plasma from the blood samples. Following centrifugation, the resulting serum was transferred to clean tubes and stored frozen at −80° C. Immediately following the blood samples, the brain tissue samples of mice were removed and stored frozen at −80° C.
A 20% brain homogenate was prepared by weighing brain tissue sample and adding, corresponding volume of saline into the manual homogenator. The dilution factor was 5 (w/v=1 g: 4 mL). The brain tissue sample was grinded slowly and repeatedly until it has become homogenous.
Plasma and Brain samples were centrifuged at 15777×g for 5 minutes, and 180 ul of supernatant was placed in a 96-well assay plate. To each well, 200 ul of a 50% ACN/H2O was added and the plates were shake-mixed for 3 minutes. 5 ul aliquots of each well were then analyzed using LC-MS/MS.
The standard non-compartmental model was used to generate the pharmacokinetic parameters: Cmax, Tmax, t1/2, AUC0->last, AUC0->inf, CL/F, and Vz/F. The maximum plasma concentration, Cmax, and its corresponding time, Tmax were directly recorded. Elimination rate constant kel was determined by linear regression of the terminal points of the semi-log plot of concentration against time. Elimination half-life was calculated by the formula; t12=0.693/kel. The Area Under the curve value from time 0 to 24 hours was defined as AUCt->last and calculated using the linear trapezoidal rule.

## COc1cc(N(c2ccccc2)c2ccccc2)ccc1/C=C(\C#N)C(=O)O [Compound 20]
[1]
  IC50: 0.008 µM
[2]; 10 mg/kg i.p. twice daily
  Weight in grams (Day 0): 21.93 grams
  Weight in grams (Day 22): 23.38 grams
[2]; 50 mg/kg p.o. twice daily
  Weight in grams (Day 0): 21.85 grams
  Weight in grams (Day 22): 23.01 grams
[3]; 100 mg/kg i.p., 0 h
  Plasma Concentration, individual animals (1#, 2#, 3#): 0 ng/mL
[3]; 100 mg/kg i.p., 0.083 h
  Plasma Concentration, individual animals (1#, 2#, 3#): 18800 ng/mL and 33300 ng/mL and 40400 ng/mL
[3]; 100 mg/kg i.p., 0.25 h
  Plasma Concentration, individual animals (1#, 2#, 3#): 78300 ng/mL and 29400 ng/mL and 60100 ng/mL
[3]; 100 mg/kg i.p., 0.5 h
  Plasma Concentration, individual animals (1#, 2#, 3#): 30400 ng/mL and 30200 ng/mL
[3]; 100 mg/kg i.p., 1 h
  Plasma Concentration, individual animals (1#, 2#, 3#): 45600 ng/mL and 26900 ng/mL
[3]; 100 mg/kg i.p., 2 h
  Plasma Concentration, individual animals (1#, 2#, 3#): 27800 ng/mL and 38900 ng/mL
[3]; 100 mg/kg i.p., 4 h
  Plasma Concentration, individual animals (1#, 2#, 3#): 24000 ng/mL and 26400 ng/mL
[3]; 100 mg/kg i.p., 6 h
  Plasma Concentration, individual animals (1#, 2#, 3#): 14200 ng/mL and 3980 ng/mL and 5360 ng/mL
[3]; 100 mg/kg i.p., 8 h
  Plasma Concentration, individual animals (1#, 2#, 3#): 3160 ng/mL and 2590 ng/mL
[3]; 100 mg/kg i.p., 24 h
  Plasma Concentration, individual animals (1#, 2#, 3#): 41.8 ng/mL and 249 ng/mL and 70.9 ng/mL
[3]; 100 mg/kg i.p.
  CLz/F: 8.32 mL/min/kg
  t1/2Z: 191 min
[3]; 100 mg/kg p.o. and i.p.
  pharmacokinetics parameters (overall assessment): satisfactory
[3]; 100 mg/kg p.o., 0 h
  Plasma Concentration, individual animals (1#, 2#, 3#): 0 ng/mL
[3]; 100 mg/kg p.o., 0.083 h
  Plasma Concentration, individual animals (1#, 2#, 3#): 4050 ng/mL and 4040 ng/mL
[3]; 100 mg/kg p.o., 0.25 h
  Plasma Concentration, individual animals (1#, 2#, 3#): 11300 ng/mL and 6400 ng/mL
[3]; 100 mg/kg p.o., 0.5 h
  Plasma Concentration, individual animals (1#, 2#, 3#): 19100 ng/mL and 20700 ng/mL and 6580 ng/mL
[3]; 100 mg/kg p.o., 1 h
  Plasma Concentration, individual animals (1#, 2#, 3#): 3610 ng/mL and 4830 ng/mL and 12700 ng/mL
[3]; 100 mg/kg p.o., 2 h
  Plasma Concentration, individual animals (1#, 2#, 3#): 3270 ng/mL and 1380 ng/mL and 4790 ng/mL
[3]; 100 mg/kg p.o., 4 h
  Plasma Concentration, individual animals (1#, 2#, 3#): 2880 ng/mL and 5160 ng/mL and 1240 ng/mL
[3]; 100 mg/kg p.o., 6 h
  Plasma Concentration, individual animals (1#, 2#, 3#): 1470 ng/mL and 2230 ng/mL and 3720 ng/mL
[3]; 100 mg/kg p.o., 8 h
  Plasma Concentration, individual animals (1#, 2#, 3#): 5780 ng/mL and 2370 ng/mL and 3880 ng/mL
[3]; 100 mg/kg p.o., 24 h
  Plasma Concentration, individual animals (1#, 2#, 3#): 111 ng/mL and 19.3 ng/mL and 12.8 ng/mL
[3]; 100 mg/kg p.o.
  CLz/F: 26 mL/min/kg
  t1/2Z: 182 min
[3]; ip, 100 mg/kg i.p., 0 h, n = 3, read-out: Plasma Concentration, Mean
  concentration at 0 h: 0 ng/mL
[3]; ip, 100 mg/kg i.p., 0 h, read-out: Plasma Concentration, individual animals (1#, 2#, 3#)
  concentration at 0 h: 0 ng/mL
[3]; ip, 100 mg/kg i.p., 0.083 h, n = 3, read-out: Plasma Concentration, Mean
  concentration at 0.083 h: 30800 ng/mL
[3]; ip, 100 mg/kg i.p., 0.25 h, n = 3, read-out: Plasma Concentration, Mean
  concentration at 0.25 h: 55900 ng/mL
[3]; ip, 100 mg/kg i.p., 0.5 h, n = 3, read-out: Plasma Concentration, Mean
  concentration at 0.5 h: 37300 ng/mL
[3]; ip, 100 mg/kg i.p., 0.5 h, read-out: Plasma Concentration, individual animals (1#, 2#, 3#)
  concentration at 0.5 h: 51400 ng/mL
[3]; ip, 100 mg/kg i.p., 1 h, n = 3, read-out: Plasma Concentration, Mean
  concentration at 1 h: 34800 ng/mL
[3]; ip, 100 mg/kg i.p., 1 h, read-out: Plasma Concentration, individual animals (1#, 2#, 3#)
  concentration at 1 h: 31800 ng/mL
[3]; ip, 100 mg/kg i.p., 2 h, n = 3, read-out: Plasma Concentration, Mean
  concentration at 2 h: 35200 ng/mL
[3]; ip, 100 mg/kg i.p., 2 h, read-out: Plasma Concentration, individual animals (1#, 2#, 3#)
  concentration at 2 h: 38800 ng/mL
[3]; ip, 100 mg/kg i.p., 4 h, n = 3, read-out: Plasma Concentration, Mean
  concentration at 4 h: 25100 ng/mL
[3]; ip, 100 mg/kg i.p., 4 h, read-out: Plasma Concentration, individual animals (1#, 2#, 3#)
  concentration at 4 h: 25000 ng/mL
[3]; ip, 100 mg/kg i.p., 6 h
  concentration at 6 h: 7850 ng/mL
[3]; ip, 100 mg/kg i.p., 8 h, n = 3, read-out: Plasma Concentration, Mean
  concentration at 8 h: 2840 ng/mL
[3]; ip, 100 mg/kg i.p., 8 h, read-out: Plasma Concentration, individual animals (1#, 2#, 3#)
  concentration at 8 h: 2760 ng/mL
[3]; ip, 100 mg/kg i.p., 24 h
  concentration at 24 h: 121 ng/mL
[3]; po, 100 mg/kg p.o., 0 h, n = 3, read-out: Plasma Concentration, Mean
  concentration at 0 h: 0 ng/mL
[3]; po, 100 mg/kg p.o., 0 h, read-out: Plasma Concentration, individual animals (1#, 2#, 3#)
  concentration at 0 h: 0 ng/mL
[3]; po, 100 mg/kg p.o., 0.083 h, n = 3, read-out: Plasma Concentration, Mean
  concentration at 0.083 h: 3430 ng/mL
[3]; po, 100 mg/kg p.o., 0.083 h, read-out: Plasma Concentration, individual animals (1#, 2#, 3#)
  concentration at 0.083 h: 2210 ng/mL
[3]; po, 100 mg/kg p.o., 0.25 h, n = 3, read-out: Plasma Concentration, Mean
  concentration at 0.25 h: 9130 ng/mL
[3]; po, 100 mg/kg p.o., 0.25 h, read-out: Plasma Concentration, individual animals (1#, 2#, 3#)
  concentration at 0.25 h: 9690 ng/mL
[3]; po, 100 mg/kg p.o., 0.5 h, n = 3, read-out: Plasma Concentration, Mean
  concentration at 0.5 h: 15500 ng/mL
[3]; po, 100 mg/kg p.o., 1 h, n = 3, read-out: Plasma Concentration, Mean
  concentration at 1 h: 7050 ng/mL
[3]; po, 100 mg/kg p.o., 2 h, n = 3, read-out: Plasma Concentration, Mean
  concentration at 2 h: 3150 ng/mL
[3]; po, 100 mg/kg p.o., 4 h, n = 3, read-out: Plasma Concentration, Mean
  concentration at 4 h: 3090 ng/mL
[3]; po, 100 mg/kg p.o., 6 h
  concentration at 6 h: 2470 ng/mL
[3]; po, 100 mg/kg p.o., 8 h, n = 3, read-out: Plasma Concentration, Mean
  concentration at 8 h: 4010 ng/mL
[3]; po, 100 mg/kg p.o., 24 h
  concentration at 24 h: 47.7 ng/mL
[3]; ip, 100 mg/kg i.p.
  AUC(0-inf): 201 µg·h/mL
  AUC(0-t): 201 µg·h/mL
  Cmax: 61300 ng/mL
  Tmax: 30 min
  Vd/F: 2.35 L/kg
[3]; po, 100 mg/kg p.o.
  AUC(0-inf): 66 µg·h/mL
  AUC(0-t): 65.7 µg·h/mL
  Cmax: 17500 ng/mL
  Tmax: 40 min
  Vd/F: 6.55 L/kg
